Each block holds one compound with its values, some of them ahead of it. Where a SMILES comes first, the peptide text is derived from it. [ ]: non-standard residue; d: D form. The star is where a group is joined. Cholesteryloxycarbonyl = CC(C)CCC[C@@H](C)[C@H]1CC[C@H]2[C@@H]3CC=C4C[C@@H](OC(=O)*)CC[C@]4(C)[C@H]3CC[C@]12C; PEG3 = NCCOCCOCCOCCC(=O)O; Aib = CC(C)(N)C(=O)O; βAla = NCCC(=O)O
Assays:
[1] = test system: HaCaT; experiment: Cytotoxicity against human HaCaT cells; type: functional, cell-based
[2] = test system: BJAB; experiment: Cytotoxicity against human BJAB cells; type: functional, cell-based
[3] = test system: K562; experiment: Cytotoxicity against human K562 cells; type: functional, cell-based
[4] = test system: Jurkat; experiment: Cytotoxicity against human Jurkat cells; type: functional, cell-based
[5] = test system: HBL-100; experiment: Cytotoxicity against human HBL100 cells; type: functional, cell-based
[6] = test system: SK-BR-3; experiment: Cytotoxicity against human SK-BR-3 cells assessed as reduction in cell viability incubated for 72 hrs by flow cytometry; type: functional, cell-based; details: SK-BR-3, 72 h
[7] = test system: SK-BR-3; experiment: Cytotoxicity against human SK-BR-3 cells assessed as reduction in cell viability incubated for 72 hrs in presence of trastuzumab-iCME by flow cytometry; type: functional, cell-based; details: SK-BR-3, 72 h
[8] = test system: BJAB; experiment: Induction of apoptosis in human BJAB cells at 5 nM incubated for 72 hrs by flow cytometric method relative to control; type: functional
[9] = test system: MCF7; experiment: Induction of apoptosis in human MCF7 cells at 3 nM incubated for 72 hrs by flow cytometric method; type: functional
[10] = test system: NALM-6; experiment: Induction of apoptosis in human Nalm-6 cells at 5 nM incubated for 72 hrs by flow cytometric method relative to control; type: functional
[11] = Inhibition of porcine tubulin polymerization by UV/visible spectrophotometry; parameters: species or system Sus scrofa
[12] = test system: BXPC-3; experiment: Cytotoxicity against human BxPC-3 cells incubated for 48 hrs by MTT assay; type: functional, cell-based; details: BXPC-3, 48 h
[13] = test system: PC-3; experiment: Cytotoxicity against human PC-3 cells incubated for 48 hrs by MTT assay; type: functional, cell-based; details: PC-3, 48 h
[14] = Antiproliferative activity against human KB-8511 cells incubated for 96 hrs by spectrophotometric method; type: functional, cell-based; details: KB-ChR-8-5-11, 96 h
[15] = test system: P388; experiment: Antiproliferative activity against mouse P388 cells incubated for 72 hrs by Coulter counter method; type: functional, cell-based; details: P388, 72 h
[16] = Cytotoxicity against human HGF-1 cells incubated for 48 hrs by MTT assay; type: cell-based; details: HGF1, 48 h
[17] = test system: KB 3-1; experiment: Antiproliferative activity against human KB-31 cells incubated for 96 hrs by spectrophotometric method; type: functional, cell-based; details: KB 3-1, 96 h
[18] = test system: HT-29; experiment: Cytotoxicity against human HT-29 cells incubated for 48 hrs by MTT assay; type: functional, cell-based; details: HT-29, 48 h
[19] = test system: HeLa; experiment: Cytotoxicity against human HeLa cells after 24 to 72 hrs by Cell Titer Blue assay; type: cell-based
[20] = Cytotoxicity against human BHP-1 cells incubated for 48 hrs by MTT assay; type: cell-based; details: BHP1, 48 h
[21] = test system: HEK293; experiment: Cytotoxicity against HEK293 cells incubated for 48 hrs by MTT assay; type: cell-based; details: Homo sapiens, HEK293, 48 h
[22] = test system: A549; experiment: Cytotoxicity against human A549 cells incubated for 48 hrs by MTT assay; type: functional, cell-based; details: A549, 48 h
[23] = test system: MIA PaCa-2; experiment: Cytotoxicity against human Mia PaCa-2 cells incubated for 48 hrs by MTT assay; type: functional, cell-based; details: MIA PaCa-2, 48 h
[24] = Inhibition of DNA topoisomerase2 (unknown origin); parameters: species or system Homo sapiens
[25] = test system: A549; experiment: Cytotoxicity against human A549 cells by MTT assay; type: functional, cell-based
[26] = species on record: Bos taurus; experiment: Inhibition of [3H]colchicine binding to bovine brain tubulin at 5 uM incubated for 10 mins by DEAE-cellulose filter method relative to control
[27] = test system: L1210; experiment: Cytotoxicity against mouse L1210 cells incubated for 24 hrs; type: functional, cell-based; details: L1210, 24 h
[28] = test system: HEK293; experiment: Cytotoxicity against HEK293 cells; type: cell-based; details: Homo sapiens
[29] = test system: NALM-6; experiment: Antiproliferative activity against human Nalm-6 cells incubated for 24 hrs by cell counting based method; type: functional; details: NALM-6, 24 h
[30] = test system: BJAB; experiment: Antiproliferative activity against human BJAB cells incubated for 24 hrs by cell counting based method; type: functional
[31] = species on record: Rattus norvegicus; experiment: Inhibition of [3H]colchicine binding to rat brain tubulin at 25 uM relative to control

SMILES: CCCCCCCCCCCCCCCC(=O)OCc1cn([C@H]2CCc3cc(OC)c(OC)c(OC)c3-c3ccc(OC)c(=O)cc32)nn1
- IC50 [1]: 3.5 nM
- IC50 [2]: 3.5 nM
- IC50 [3]: 3.5 nM
- IC50 [4]: 3.5 nM
- IC50 [5]: 3.5 nM

SMILES: CC(C)CCC[C@@H](C)[C@H]1CC[C@H]2[C@@H]3CC=C4C[C@@H](OC(=O)NCCC(=O)NCCC(=O)N[C@@H](CCC(=O)O)C(=O)N[C@@H](CCC(=O)O)C(=O)NCCOCCOCCOCCC(=O)NCCOCCOCCOCCC(=O)NC(C)(C)C(=O)NC(C)(C)C(=O)NC(C)(C)C(=O)NC(C)(C)C(=O)N[C@@H](Cc5c[nH]c6ccccc56)C(=O)N[C@@H](Cc5ccc(O)cc5)C(=O)N[C@@H](C)C(=O)N[C@@H](Cc5c[nH]c6ccccc56)C(=O)N[C@@H](Cc5ccc(O)cc5)C(=O)N[C@@H](C)C(=O)N[C@@H](Cc5c[nH]c6ccccc56)C(=O)N[C@@H](Cc5ccc(O)cc5)C(=O)N5CCC[C@H]5C(=O)N5CCC[C@H]5C(=O)N[C@H](C(=O)N[C@H](C(N)=O)C(C)C)C(C)C)CC[C@]4(C)[C@H]3CC[C@]12C ({Cholesteryloxycarbonyl-βAla-βAla}-EE[PEG3][PEG3][Aib][Aib][Aib][Aib]WYAWYAWYPPVV-NH2)
- IC50 [6]: > 10000 nM
- IC50 [7]: 0.11 nM

SMILES: C=C1Cc2cc(OC)c(OC)c(OC)c2-c2ccc(OC)c(=O)cc21
- Activity [8]: 48%
- Activity [9]: 62%
- Activity [10]: 71%

SMILES: CCCCCCCCCCCCCCCCCC(=O)OCc1cn([C@H]2CCc3cc(OC)c(OC)c(OC)c3-c3ccc(OC)c(=O)cc32)nn1
- IC50 [1]: 3.5 nM
- IC50 [2]: 3.5 nM
- IC50 [3]: 3.5 nM
- IC50 [4]: 3.5 nM
- IC50 [5]: 3.5 nM

SMILES: COc1cc2c(c(OC)c1OC)-c1ccc(OC)c(=O)cc1[C@@H](NC(C)=O)CC2 [COLCHICINE]
- IC50 [11]: 3900 nM
- IC50 [12]: 42 nM
- IC50 [13]: 42 nM
- IC50 [14]: 540 nM
- IC50 [15]: 29 nM
- IC50 [16]: 42 nM
- IC50 [17]: 9 nM
- IC50 [18]: 42 nM
- IC50 [19]: 58 nM
- IC50 [20]: 42 nM
- IC50 [21]: 42 nM
- IC50 [22]: 42 nM
- IC50 [23]: 42 nM

- IC50 [24]: 9000 nM
SMILES: CSc1ccc2c(cc1=O)[C@@H](NC(C)=O)CCc1cc(O)c(O)c(O)c1-2

SMILES: COc1cc2c(c(OC)c1OC)-c1ccc(OC)c(=O)cc1[C@@H](NC(=O)CCCCCC(=O)OC1C3CC4CC(C3)CC1C4)CC2 (some centres not stated)
- IC50 [25]: ≤ 5 nM

SMILES: COc1c2c(cc3c1-c1ccc(OC)c(=O)cc1[C@@H](NC(C)=O)CC3)OCO2
- inhibition [26]: 54%
- IC50 [27]: 20 nM

SMILES: COc1cc2c(c(OC)c1OC)-c1ccc(OC)c(=O)cc1[C@@H](NC(=O)CCCCCCC(=O)C1C3CC4CC(C3)CC1C4)CC2 (some centres not stated)
- IC50 [25]: ≤ 5 nM

SMILES: COc1cc2c(c(OC)c1OC)-c1ccc3[nH]c(C)c(C)c3c1[C@@H](NC(C)=O)CC2
- IC50 [28]: 2000 nM

SMILES: COc1cc2c(c(OC)c1OC)C1=C(C=C(O)C(=O)CC1)CO[C@@H]2C
- IC50 [29]: 1000 nM
- IC50 [30]: 1000 nM

- inhibition [31]: 87%
SMILES: COc1cc2c(c(OC)c1OC)-c1cccc(=O)cc1[C@@H](NC(C)=O)CC2

Reference: ChEMBL document CHEMBL4665675 (J Med Chem, 2020)
